Assay results reported in ChEMBL document CHEMBL1201862, “PubChem BioAssay data set” (2004).
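These data come from cells grown in 96-well plates and exposed to compound for 48 hours at five concentrations. At the GI50, growth is halved.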 The source made the active and inactive calls. No stated cut-off is given here; in the data, active = GI50 up to about 1.1 µM and inactive = higher.

Tests used:
Assay in all cases: inhibition of tumour cell growth, NCI panel, 48 h
786-0 = system: 786-0
ACHN = system: ACHN
HCC 2998 = system: HCC 2998
HCT-116 = system: HCT-116
HT-29 = system: HT-29
IGROV-1 = system: IGROV-1
KM12 = system: KM12
M14 = system: M14
Malme-3M = system: Malme-3M
OVCAR-5 = system: OVCAR-5
RXF 393 = system: RXF 393
SF-539 = system: SF-539
SK-MEL-28 = system: SK-MEL-28
SR = system: SR
SW-620 = system: SW-620
CCRF-CEM = system: CCRF-CEM

Measured: GI50

NC(=S)NNc1c([N+](=O)[O-])cnn(-c2ccccc2)c1=O
inactive: 786-0 20.3 µM | ACHN 18.7 µM | HCC 2998 18.7 µM | HCT-116 10.2 µM | HT-29 18 µM | IGROV-1 19.1 µM | KM12 14.7 µM | M14 15 µM | Malme-3M 19.2 µM | OVCAR-5 18.4 µM | RXF 393 18.5 µM | SF-539 18.8 µM | SK-MEL-28 17 µM | SR 4.05 µM | SW-620 13.1 µM

Clc1cc2nc[nH]c2cc1Cl
inactive: 786-0 > 100 µM | ACHN > 100 µM | CCRF-CEM > 100 µM | HCC 2998 > 100 µM | HT-29 > 100 µM | IGROV-1 > 100 µM | KM12 71.8 µM | M14 > 100 µM | Malme-3M > 100 µM | OVCAR-5 > 100 µM | SF-539 > 100 µM | SK-MEL-28 > 100 µM | SW-620 > 100 µM

CCO/S(=N/S(=O)(=O)c1ccccc1)c1ccccc1[N+](=O)[O-] (stereo not drawn)
inactive: 786-0 > 100 µM | CCRF-CEM 80.2 µM | HCC 2998 > 100 µM | HT-29 > 100 µM | IGROV-1 > 100 µM | KM12 > 100 µM | M14 > 100 µM | Malme-3M > 100 µM | OVCAR-5 > 100 µM | SF-539 > 100 µM | SK-MEL-28 > 100 µM | SR > 100 µM | SW-620 > 100 µM

CC(C)(C)C(=O)C(c1ccc(-c2cscn2)cc1)c1ccc(-c2cscn2)cc1
inactive: 786-0 21.5 µM | ACHN 32 µM | CCRF-CEM > 100 µM | HCC 2998 > 100 µM | HCT-116 44 µM | HT-29 72.3 µM | IGROV-1 37.8 µM | KM12 > 83.9 µM | M14 97.5 µM | Malme-3M > 56.4 µM | OVCAR-5 > 100 µM | RXF 393 18.8 µM | SF-539 23.6 µM | SK-MEL-28 46.3 µM | SW-620 > 100 µM

CC1(C)COC(C2(C)C(=O)C=C(c3ccccc3)c3ccccc32)=N1 (stereo not drawn)
inactive: 786-0 59.8 µM | ACHN 34.9 µM | CCRF-CEM 35.5 µM | HCT-116 44.1 µM | HT-29 30.5 µM | IGROV-1 47.5 µM | KM12 47.3 µM | M14 46.1 µM | Malme-3M 11.5 µM | RXF 393 55.3 µM | SF-539 43.6 µM | SK-MEL-28 42.9 µM | SR 37.2 µM | SW-620 81.8 µM

Cc1ccc(NC(=O)CC2Sc3ccccc3NC2=O)c(C)c1 (stereo not drawn)
inactive: 786-0 13.7 µM | ACHN 18.8 µM | CCRF-CEM 10.7 µM | HCC 2998 11 µM | HCT-116 10.3 µM | IGROV-1 23.6 µM | KM12 4.88 µM | M14 12.4 µM | Malme-3M 14.7 µM | OVCAR-5 23.3 µM | RXF 393 14 µM | SF-539 14 µM | SK-MEL-28 20.1 µM | SW-620 11.4 µM

CCN(CC)CC(C(=O)Nc1c(C)cccc1C)/C(C)=N\NC(=S)NN (stereo not drawn)
inactive: 786-0 > 100 µM | ACHN > 100 µM | CCRF-CEM > 100 µM | HCC 2998 > 100 µM | HCT-116 > 100 µM | HT-29 > 100 µM | IGROV-1 > 100 µM | KM12 > 100 µM | M14 > 100 µM | Malme-3M > 100 µM | OVCAR-5 > 100 µM | RXF 393 > 100 µM | SF-539 > 100 µM | SK-MEL-28 > 100 µM | SW-620 > 100 µM

CCOC(=O)NC(=O)c1cn(C2CCCCC2)c(=O)[nH]c1=O
inactive: 786-0 24.7 µM | ACHN 35.6 µM | CCRF-CEM 33.3 µM | HCC 2998 53.6 µM | HCT-116 5.11 µM | HT-29 6.67 µM | IGROV-1 54.8 µM | KM12 78.2 µM | M14 55.1 µM | Malme-3M > 100 µM | OVCAR-5 > 100 µM | SF-539 39.7 µM | SK-MEL-28 > 100 µM | SW-620 17.4 µM

CS/C(=N\c1nccs1)NC(=O)c1cccc(Cl)c1
inactive: 786-0 > 100 µM | ACHN > 100 µM | CCRF-CEM 72.6 µM | HCC 2998 > 100 µM | HCT-116 > 100 µM | HT-29 > 100 µM | IGROV-1 > 100 µM | KM12 > 100 µM | M14 > 100 µM | Malme-3M > 100 µM | OVCAR-5 > 100 µM | RXF 393 > 100 µM | SF-539 > 100 µM | SK-MEL-28 > 100 µM | SR 24.6 µM | SW-620 > 100 µM

CC1=CP(=O)(c2ccccc2)C=C(C)C1=C(Cl)Cl (stereo not drawn)
inactive: 786-0 4.1 µM | CCRF-CEM 3.93 µM | HCC 2998 15 µM | HCT-116 3.2 µM | HT-29 3.55 µM | IGROV-1 17.3 µM | KM12 3.37 µM | M14 4.99 µM | RXF 393 16.9 µM | SF-539 5.24 µM | SK-MEL-28 11.2 µM | SW-620 3.82 µM

CCOC(=O)C(=O)Nc1nc2ccc(OC)cc2s1
inactive: 786-0 > 100 µM | ACHN > 100 µM | CCRF-CEM > 100 µM | HCC 2998 > 100 µM | HT-29 > 100 µM | IGROV-1 > 100 µM | KM12 > 100 µM | M14 > 100 µM | Malme-3M > 100 µM | OVCAR-5 > 100 µM | SF-539 > 100 µM | SK-MEL-28 > 100 µM | SW-620 > 100 µM

O=C1C2Nc3ccccc3SC2C(=O)N1c1ccc(Br)cc1 (stereo not drawn)
inactive: 786-0 18.9 µM | ACHN 17.6 µM | CCRF-CEM > 10 µM | HCC 2998 45.8 µM | HT-29 36.1 µM | IGROV-1 53.1 µM | KM12 28.2 µM | M14 33.5 µM | Malme-3M 27.2 µM | OVCAR-5 > 100 µM | RXF 393 18.2 µM | SF-539 26.4 µM | SK-MEL-28 62.2 µM | SW-620 45 µM

COc1cc(O)c2c(c1)O[C@@H]1OCC[C@H]21
inactive: 786-0 > 100 µM | ACHN > 100 µM | CCRF-CEM > 100 µM | HCC 2998 > 100 µM | HCT-116 > 100 µM | HT-29 > 100 µM | IGROV-1 > 100 µM | KM12 > 100 µM | M14 > 100 µM | Malme-3M > 100 µM | OVCAR-5 > 100 µM | SF-539 > 100 µM | SK-MEL-28 > 100 µM | SR > 100 µM | SW-620 > 100 µM

COc1cc([C@@H]2c3cc4c(cc3[C@@H](NC(=O)c3cccc(F)c3)C3COC(=O)[C@@H]32)OCO4)cc(OC)c1O (stereo partly drawn)
active: 786-0 0.441 µM | ACHN 0.125 µM | CCRF-CEM 0.111 µM | SF-539 0.356 µM | SW-620 0.738 µM
inactive: HCC 2998 2.66 µM | HCT-116 1.76 µM | HT-29 2.05 µM | IGROV-1 1.19 µM | KM12 1.76 µM | M14 1.26 µM | Malme-3M 1.29 µM | OVCAR-5 2.21 µM | RXF 393 4.3 µM | SK-MEL-28 2.94 µM

c1c[nH]c(Cc2nc(Cc3c[nH]cn3)c[nH]2)n1
inactive: 786-0 11.7 µM | ACHN 3.51 µM | CCRF-CEM 5.06 µM | HCC 2998 2.74 µM | HCT-116 29.5 µM | HT-29 4.12 µM | IGROV-1 16.5 µM | KM12 7.64 µM | M14 10.5 µM | Malme-3M 5.07 µM | OVCAR-5 1.53 µM | SF-539 27.2 µM | SK-MEL-28 28.2 µM | SW-620 6.73 µM

Cc1ccc(Cl)c(NC(=O)C(=O)C(C(=O)c2ccncc2)C2OC(=O)c3ccccc32)c1 (stereo not drawn)
active: CCRF-CEM 0.512 µM
inactive: 786-0 > 100 µM | ACHN > 100 µM | HCC 2998 > 100 µM | HCT-116 > 100 µM | HT-29 > 100 µM | IGROV-1 > 100 µM | M14 > 100 µM | Malme-3M > 100 µM | RXF 393 > 100 µM | SF-539 > 100 µM | SK-MEL-28 > 100 µM | SR > 100 µM | SW-620 > 100 µM

O=C1CCNC/C1=C\c1ccccc1
inactive: 786-0 15.6 µM | ACHN 22.9 µM | HCC 2998 20.1 µM | HCT-116 17.9 µM | HT-29 15.6 µM | IGROV-1 29.9 µM | KM12 14.8 µM | M14 14 µM | OVCAR-5 24.7 µM | SF-539 17.4 µM | SK-MEL-28 17.4 µM | SR 25.2 µM | SW-620 21.8 µM

Cc1cc(C(=O)N2CCN(Cc3ccccc3)CC2)c(C)o1
inactive: 786-0 > 100 µM | ACHN > 100 µM | CCRF-CEM > 100 µM | HCC 2998 > 100 µM | HCT-116 > 100 µM | HT-29 > 100 µM | IGROV-1 > 100 µM | KM12 > 100 µM | M14 > 100 µM | OVCAR-5 > 100 µM | SF-539 > 100 µM | SK-MEL-28 > 100 µM | SR > 100 µM | SW-620 > 100 µM

CC1CCCc2c1c1ccc3c(O)cccc3c1oc2=O (stereo not drawn)
inactive: 786-0 19.5 µM | ACHN 19.7 µM | CCRF-CEM 67.1 µM | HCC 2998 > 100 µM | HCT-116 91.8 µM | HT-29 > 100 µM | IGROV-1 39.6 µM | KM12 > 100 µM | M14 > 100 µM | Malme-3M > 100 µM | OVCAR-5 71.8 µM | RXF 393 18.8 µM | SK-MEL-28 > 100 µM | SR > 100 µM | SW-620 > 100 µM
